Assays:
[1] = tested on: cholesterol fed Syrian Hamsters; conditions: hamster, in vivo, po, 10 mg/kg/day
C57BL/KsJ-db/db mice = assay: Blood sugar and triglyceride lowering in db/db mice (genetic model); assay type: in vivo
Description: Mutation in colonies of laboratory animals and different sensitivities to dietary regimens have made the development of animal models with non-insulin dependent diabetes and hyperlipidemia associated with obesity and insulin resistance possible. Genetic models such as db/db and ob/ob (Diabetes, (1982) 31(1): 1-6) mice and zucker fa/fa rats have been developed by the various laboratories for understanding the pathophysiology of disease and testing the efficacy of new antidiabetic compounds (Diabetes, (1983) 32: 830-838; Annu. Rep. Sankyo Res. Lab. (1994). 46: 1-57). The homozygous animals, C57 BL/KsJ-db/db mice developed by Jackson Laboratory, U.S., are obese, hyperglycemic, hyperinsulinemic and insulin resistant (J. Clin. Invest., (1990) 85: 962-967), whereas heterozygous are lean and normoglycemic. In db/db model, mouse progressively develops insulinopenia with age, a feature commonly observed in late stages of human type II diabetes when blood sugar levels are insufficiently controlled. The state of pancreas and its course vary according to the models. Since this model resembles that of type II diabetes mellitus, the compounds of the present invention were tested for blood sugar and triglycerides lowering activities. Male C57BL/KsJ-db/db mice of 8 to 14 weeks age, having body weight range of 35 to 60 grams, bred at Dr. Reddy's Research Foundation (DRF) animal house, were used in the experiment. The mice were provided with standard feed (National Institute of Nutrition (NIN), Hyderabad, India) and acidified water, ad libitum. The animals having more than 350 mg/dl blood sugar were used for testing. The number of animals in each group was 4. […] The control group received vehicle (dose 10 ml/kg). On 6th day the blood samples were collected one hour after administration of test compounds/vehicle for assessing the biological activity. The random blood sugar and triglyceride levels were measured by collecting blood (100 μl) through orbital sinus, using heparinised capillary in tubes containing EDTA which was centrifuged to obtain plasma. The plasma glucose and triglyceride levels were measured spectrometrically, by glucose oxidase and glycerol-3-PO4 oxidase/peroxidase enzyme (Dr. Reddy's Lab. Diagnostic Division Kits, Hyderabad, India) methods respectively. The blood sugar and triglycerides lowering activities of the test compound was calculated according to the formula. Formulae for Calculation: 1. Percent reduction in Blood sugar/triglycerides/total cholesterol were calculated according to the formula: [formula] OC=Zero day control group value OT=Zero day treated group value TC=Test day control group value TT=Test day treated group value 2. LDL and VLDL cholesterol levels were calculated according to the formula: […]

[2] = tested on: hypercholesterolemic Sprague Dawley rats; conditions: rat, in vivo, po, 1 mg/kg
[3] = tested on: Swiss albino mice and Guinea pigs; assay: Plasma triglyceride and total cholesterol lowering activity in Swiss albino mice and Guinea pigs; assay type: in vivo; conditions: 3 mg/kg orally for 6 days; species of the table not stated (Swiss albino mice / Guinea pigs)
Method: C) Plasma Triglyceride and Total Cholesterol Lowering Activity in Swiss Albino Mice and Guinea Pigs Male Swiss albino mice (SAM) and male Guinea pigs were obtained from NIN and housed in DRF animal house. All these animals were maintained under 12 hour light and dark cycle at 25±1° C. Animals were given standard laboratory chow (NIN, Hyderabad. India) and water, ad libitum. […] C. Effects of fenofibrate, gemfibrozil and nicotinic acid on plasma lipoprotein levels in normal and hyperlipidemic mice. Atherosclerosis. 1988, 70: 107-114). […] Control mice were treated with vehicle (0.25% Carboxymethylcellulose; dose 10 ml/kg). […] Control animals were treated with vehicle (0.25% Carboxymethylcellulose; dose 5 ml/kg). The blood samples were collected in fed state 1 hour after drug administration on 0 and 6 day of treatment. The blood was collected from the retro-orbital sinus through heparinised capillary in EDTA containing tubes. After centrifugation, plasma sample was separated for triglyceride and total cholesterol (Wieland, O. Methods of Enzymatic analysis. Bergermeyer, H. O., Ed., 1963. 211-214; Trinder, P. Ann. Clin. Biochem. 1969, 6: 24-27). […] Percent reduction in Blood sugar/triglycerides/total cholesterol were calculated according to the formula: [formula] […] LDL and VLDL cholesterol levels were calculated according to the formula: […]

[4] = 10 mg/kg oral gavage daily for 6 days
[5] = 3 mg/kg oral gavage daily for 6 days

CCOC(Cc1ccc(OCCN2CCSc3ccccc32)cc1)C(=O)[O-].[Na+] (racemic) [Example 30, (±) 3-[4-[2(2,3-Dihydro-1,4-benzothiazin-4-yl)ethoxy]phenyl]-2-ethoxypropanoic acid, sodium salt]
Body weight Reduction (%) [1]: 18%

CCOC(Cc1ccc2cc(OCCN3CCSc4ccccc43)ccc2c1)C(=O)[O-].[Na+] (racemic) [Example 44]
Reduction in Blood Glucose Level (%) (C57BL/KsJ-db/db mice; [4]): 47%
Triglyceride Lowering (%) (C57BL/KsJ-db/db mice; [4]): 74%
HDL (%) ↑ increase [2]: 46%
LDL (%) ↓ reduction [2]: 44%
Total Cholesterol (%) ↓ reduction [2]: 42%
Triglyceride (%) ↓ reduction [2]: 50%
VLDL (%) ↓ reduction [2]: 53%

CCCCOC(Cc1ccc(OCCN2CCOc3ccccc32)cc1)C(=O)[O-].[Na+] (racemic) [Example 50, (±) 3-[4-[2-(2,3-Dihydro-1,4-benzoxazin-4-yl)ethoxy]phenyl]-2-butoxypropanoic acid, sodium salt]
Reduction in Blood Glucose Level (%) (C57BL/KsJ-db/db mice; [5]): 45%
Triglyceride Lowering (%) (C57BL/KsJ-db/db mice; [5]): 23%

CCOC(Cc1ccc(OCC2CN(Cc3ccccc3)c3ccccc3O2)cc1)C(=O)[O-].[Na+] (racemic) [Example 63, (±) 3-[4-(4-Benzyl-3,4-dihydro-1,4-benzoxazin-2-yl)methoxyphenyl]-2-ethoxy propanoic acid, sodium salt]
Triglyceride Lowering (%) [3]: 57%
